{"source": "patent US6416949B1", "about": "“Method of synthesizing diverse collections of oligomers” (Affymax, Inc., priority 1991, dated 2002)", "key": {"Monoclonal antibody 3E7 [1]": {"system": "Monoclonal antibody 3E7", "assay": "magnetic selection of peptide beads by microbead-conjugated 3E7, analysed by flow cytometry", "assay_type": "binding", "details": "16 hr incubation at 4 degrees C in PBS, high strength magnet", "procedure": "After a 16 hr incubation at 4 degrees C, beads which bind the 3E7 antibody are selected using a high strength magnet. The selected beads are then analyzed by flow cytometry."}, "Monoclonal antibody 3E7 [2]": {"system": "Monoclonal antibody 3E7", "assay": "staining of peptide beads with fluorescently labeled antibody 3E7 and FACS sorting", "assay_type": "binding", "details": "peptide on oligonucleotide-tagged beads", "procedure": "The beads coupled with the 95 mer and YGGFL were mixed with the beads that were coupled to the 110 mer and F in the ratio of 1:20. Thus, 0.1 mg of 95 mer/YGGFL beads (2 million beads) were mixed with 2.0 mg of the 110 mer/Phe beads (40 million beads). The mixture was suspended in blocking buffer (PBS, 1% BSA, and 0.05% Tween-20) and incubated at room temperature for 1 hr. The beads were next pelleted by centrifugation and resuspended in a solution of an FITC-labeled monoclonal antibody 3E7 that binds the peptide YGGFL (1 μg/mL). The suspension was incubated 0.5 hr on ice and then centrifuged to isolate the bead pellet.\nThe beads were resuspended in PBS for delivery into the fluorescence activated cell sorting (FACS) instrument (Becton Dickinson FACSORT Plus). Beads that had bound to the fluorescently labeled antibody were identified by their acquired fluorescence, and fluorescent beads were isolated by sorting into PCR tubes. One, ten, or one hundred fluorescent beads were sorted into each PCR tube. […]\nThe beads were resuspended in PBS for delivery into the fluorescence activated cell sorting (FACS) instrument (Becton Dickinson FACSORT Plus). Beads that had bound to the fluorescently labeled antibody were identified by their acquired fluorescence (see FIG. 10), and homogeneous samples of either fluorescent or non-fluorescent beads were isolated by sorting into PCR tubes. […]"}, "Monoclonal antibody 3E7 [3]": {"molecular_target": "Monoclonal antibody 3E7", "details": "solution assay, MAb 3E7; read-out: equilibrium binding constant (Kd); cited from earlier work"}}, "data": [{"substance": "pentapeptide L-Tyr-Gly-Gly-L-Phe-L-Leu, ligand of monoclonal antibody 3E7 [YGGFL]", "values": [{"measurement": "selection of peptide-bearing beads by 3E7 antibody", "setting": "Monoclonal antibody 3E7 [1]", "value": "only beads displaying the peptide YGGFL are selected"}, {"measurement": "binding of the peptide by fluorescently labeled antibody 3E7", "setting": "Monoclonal antibody 3E7 [2]", "value": "high affinity"}, {"measurement": "Kd", "setting": "Monoclonal antibody 3E7 [3]", "value": 6.6, "unit": "nM"}]}]}
